Data taken from patent US20120214847A1, “2-[1-PHENYL-5-HYDROXY-4a-SUBSTITUTED-HEXAHYDROCYCLOPENTA[F]INDAZOL-5-YL]ETHYL PHENYL DERIVATIVES AS GLUCOCORTICOID RECEPTOR LIGANDS” (Merck Sharp & Dohme Corp., priority 2009, published 2012).

Molecular target: T1, human GR (Homo sapiens, UniProt P04150)
T1 construct: naturally expresses the human GR; endogenous in cells
T1 sequence (P04150 1-777): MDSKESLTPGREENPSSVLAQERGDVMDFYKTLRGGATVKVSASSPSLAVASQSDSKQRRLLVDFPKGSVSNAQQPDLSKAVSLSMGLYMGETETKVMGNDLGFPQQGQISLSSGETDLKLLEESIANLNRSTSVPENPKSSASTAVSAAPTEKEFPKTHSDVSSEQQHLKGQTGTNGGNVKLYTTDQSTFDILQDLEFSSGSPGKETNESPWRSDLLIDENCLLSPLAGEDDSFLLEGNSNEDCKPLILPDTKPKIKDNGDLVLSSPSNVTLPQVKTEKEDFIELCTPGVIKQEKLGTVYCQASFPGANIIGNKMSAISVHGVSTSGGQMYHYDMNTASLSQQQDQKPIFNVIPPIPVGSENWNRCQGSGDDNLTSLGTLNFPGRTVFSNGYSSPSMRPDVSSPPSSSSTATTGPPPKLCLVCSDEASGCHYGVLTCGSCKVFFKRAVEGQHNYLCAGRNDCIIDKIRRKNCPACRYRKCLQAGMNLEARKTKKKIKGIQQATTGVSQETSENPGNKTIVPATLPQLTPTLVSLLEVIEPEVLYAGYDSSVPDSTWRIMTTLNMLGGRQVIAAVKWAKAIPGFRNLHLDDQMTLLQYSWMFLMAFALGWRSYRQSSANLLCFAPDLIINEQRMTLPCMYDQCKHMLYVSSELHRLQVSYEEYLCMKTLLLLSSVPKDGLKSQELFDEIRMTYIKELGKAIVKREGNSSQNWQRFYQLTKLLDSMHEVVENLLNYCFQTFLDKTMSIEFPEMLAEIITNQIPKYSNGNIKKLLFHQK
Experiment: Transrepression assay (GITAR), TNFα-β-lactamase reporter in U937 cells
Assay type: cell-based
Details: for EC50: U937 cells, IP = inflection point; for Emax: U-937, U937 cells, activity repressed by 100 nM dexamethasone alone set as 100%
Description: Transrepression Assay (GITAR)
This assay assesses the ability of test compounds to control transcription from the TNFα-β-lactamase reporter gene in U937 cells, a human myelomonocytic leukemia cell line that naturally expresses the human GR. The assay measures compound dependent-repression of the TNFa promoter linked to a reporter gene.
The human U937 cells that had been stablely transfected with the TNF-a promoter driving ˜-lactamase are used for this assay. U937 cells contain an endogenous glucocorticoid receptor (GR). Cells are maintained in RPMI 1640 Growth medium (GibcoCat#11875-093) containing 25 mM HEPES, 10% FBS, 2 mM L-Glutamine, 1 mM Sodium pyruvate, 25 μg/ml Gentamicin (Gibed Cat#1571 0-064), 1:1000 2-Mercaptoethanol (Gibco Cat#21985-023) and 0.8 mg/ml G418 (Gibco Cat#10131-027). The density of the cells in the flask needs to be about 1×10^6-3×10^6/ml at the time of harvest. Usually, the cells are split to 1.2˜1.4×10^5/ml (1:10) 3 days prior to the assay. 50,000 cells/well are plated in 96 well black-walled plates the day of assay. Test compounds are added 10 J.lL/well, and cells are incubated at 37° C. for 30˜45 min. For assaying compounds, first dilute 1:10 in DMSO to make 1 mM, then further dilute 1:100 in medium to make 10× stock prior to adding to the cells. Add 50 ng/ml PMA (Sigma, cat#P8139) 10 μL/well to a final concentration 5 ng/ml, and 1 μg/ml LPS (Sigma, cat#L4130) 10 μL/well to a final concentration 100 ng/ml. Incubate cells at 370 C overnight for −18 hr. PMA is stored frozen as […] in DMSO. Dilute 1:10 in DMSO for a working stock of 10 μg/ml and store at −20° C. For assaying, dilute the 10 μg/ml working stock 1:200 in medium to make a 10× solution (50 ng/ml). Store frozen LPS at 1 mg/ml in PBS, dilute 1:1000 in medium to make 10×μg/ml) for the assay. Add 6× loading buffer (CCF2-AM) 20 μL/well, and incubate at room temperature for 70-90 min. […] The activity repressed by 100 nM dexamethasone alone is set as 100% activity.

`NC(=O)c1cc(F)ccc1CC[C@]1(O)CCC2=Cc3c(cnn3-c3ccc(F)cc3)C[C@@]21C1CC1` [Example 39, 2-{2-[(4aR,5R)-4a-Cyclopropyl-1-(4-fluorophenyl)-5-hydroxy-1,4,4a,5,6,7-hexahydrocyclopenta[f]indazol-5-yl]ethyl}-5-fluorobenzamide] gave an EC50 of 0.083 µM and an Emax of 71%.
With `CC[C@]12Cc3cnn(-c4ccc(F)cc4)c3C=C1CC[C@@]2(O)CC(O)c1c(F)ccnc1Cl` (stereo partly drawn) [Example 74, (4aS,5R)-5-[2-(2-Chloro-4-fluoropyridin-3-yl)-2-hydroxyethyl]-4a-ethyl-1-(4-fluorophenyl)-1,4,4a,5,6,7-hexahydrocyclopenta[f]indazol-5-ol] the EC50 was 0.103 µM and the Emax was 72%.
`CC[C@]12Cc3cnn(-c4ccc(F)cc4)c3C=C1CC[C@@]2(O)CC(O)c1ccc(F)cn1` (single isomer, unassigned) [Example 69a] showed an EC50 of 0.111 µM and an Emax of 74%.
In the case of `COc1ccnc(CC[C@]2(O)CCC3=Cc4c(cnn4-c4ccc(F)cc4)C[C@@]32C2CC2)c1C(F)C(N)=O` (stereo partly drawn) [Example 66, 2-(2-{2-[(4aR,5R)-4a-Cyclopropyl-1-(4-fluorophenyl)-5-hydroxy-1,4,4a,5,6,7-hexahydrocyclopenta[f]indazol-5-yl]ethyl}-4-methoxypyridin-3-yl)-2-fluoroacetamide], the EC50 is reported as 0.012 µM and the Emax is reported as 76%.
`CC[C@]12Cc3cnn(-c4ccc(F)cc4)c3C=C1CC[C@@]2(O)CCc1ncc(F)cc1C(N)=O` [Example 53, 2-{2-[(4aS,5R)-4a-Ethyl-1-(4-fluorophenyl)-5-hydroxy-1,4,4a,5,6,7-hexahydrocyclopenta[f]indazol-5-yl]ethyl}-5-fluoropyridine-3-carboxamide] showed an EC50 of 0.075 µM and an Emax of 86%.
In the case of `CC[C@]12Cc3cnn(-c4cccnc4)c3C=C1CC[C@@]2(O)CCc1cccc(F)c1C(N)=O` [Example 14, 2-{2-[(4aS,5R)-4a-Ethyl-5-hydroxy-1-(pyridin-3-yl)-1,4,4a,5,6,7-hexahydrocyclopenta[f]indazol-5-yl]ethyl}-6-fluorobenzamide], the EC50 is reported as 0.043 µM and the Emax is reported as 88%.
Compound `CC[C@]12Cc3cnn(-c4cccnc4)c3C=C1CC[C@@]2(O)CCc1ccc(F)cc1C#N` [Example 9, 2-{2-[(4aS,5R)-4a-Ethyl-5-hydroxy-1-(pyridin-3-yl)-1,4,4a,5,6,7-hexahydrocyclopenta[f]indazol-5-yl]ethyl}-5-fluorobenzonitrile] has an EC50 of 0.12 µM and an Emax of 71%.
For `O=C(NC1(CO)CC1)c1ccccc1CC[C@]1(O)CCC2=Cc3c(cnn3-c3ccc(F)cc3)C[C@@]21C1CC1` [Example 46, 2-{2-[(4aR,5R)-4a-Cyclopropyl-1-(4-fluorophenyl)-5-hydroxy-1,4,4a,5,6,7-hexahydrocyclopenta[f]indazol-5-yl]ethyl}-N-[1-(hydroxymethyl)cyclopropyl]benzamide], the EC50 was 0.007 µM and the Emax was 90%.
Compound `CC[C@]12Cc3cnn(-c4ccc(F)cc4)c3C=C1CC[C@@]2(O)CCc1cccc(OC)c1C(N)=O` [Example 37, 2-{2-[(4aS,5R)-4a-Ethyl-1-(4-fluorophenyl)-5-hydroxy-1,4,4a,5,6,7-hexahydrocyclopenta[f]indazol-5-yl]ethyl}-6-methoxybenzamide] has an EC50 of 0.008 µM and an Emax of 90%.
`CC[C@]12Cc3cnn(-c4cccc(F)c4)c3C=C1CC[C@@]2(O)CCc1cccc(F)c1C(N)=O` [Example 12, 2-{2-[(4aS,5R)-4a-Ethyl-1-(3-fluorophenyl)-5-hydroxy-1,4,4a,5,6,7-hexahydrocyclopenta[f]indazol-5-yl]ethyl}-6-fluorobenzamide] showed an EC50 of 0.025 µM and an Emax of 87%.
Compound `NC(=O)c1c(C2CC2)ccnc1CC[C@]1(O)CCC2=Cc3c(cnn3-c3ccc(F)cc3)C[C@@]21C1CC1` [Example 49, 4-Cyclopropyl-2-{2-[(4aR,5R)-4a-cyclopropyl-1-(4-fluorophenyl)-5-hydroxy-1,4,4a,5,6,7-hexahydrocyclopenta[f]indazol-5-yl]ethyl}pyridine-3-carboxamide] has an EC50 of 0.012 µM and an Emax of 78%.
`NC(=O)CNC(=O)c1ccccc1CC[C@]1(O)CCC2=Cc3c(cnn3-c3ccc(F)cc3)C[C@@]21C1CC1` [Example 47, N-(2-Amino-2-oxoethyl)-2-{2-[(4aR,5R)-4a-cyclopropyl-1-(4-fluorophenyl)-5-hydroxy-1,4,4a,5,6,7-hexahydrocyclopenta[f]indazol-5-yl]ethyl}benzamide] gave an EC50 of 0.009 µM and an Emax of 83%.
`COc1cccc(CC[C@]2(O)CCC3=Cc4c(cnn4-c4ccc(F)cc4)C[C@@]32C2CC2)c1C(N)=O` [Example 38, 2-{2-[(4aR,5R)-4a-Cyclopropyl-1-(4-fluorophenyl)-5-hydroxy-1,4,4a,5,6,7-hexahydrocyclopenta[f]indazol-5-yl]ethyl}-6-methoxybenzamide] showed an EC50 of 0.011 µM and an Emax of 74%.
Work on `CC[C@]12Cc3cnn(-c4ccccc4)c3C=C1CC[C@@]2(O)CCc1ccc(F)cc1C(N)=O` [Example 6] yielded an EC50 of 0.143 µM and an Emax of 75%.
In the case of `O=C(NCCO)c1ccccc1CC[C@]1(O)CCC2=Cc3c(cnn3-c3ccc(F)cc3)C[C@@]21C1CC1` [Example 50, 2-{2-[(4aR,5R)-4a-Cyclopropyl-1-(4-fluorophenyl)-5-hydroxy-1,4,4a,5,6,7-hexahydrocyclopenta[f]indazol-5-yl]ethyl}-N-(2-hydroxyethyl)benzamide], the EC50 is reported as 0.009 µM and the Emax is reported as 88%.
Work on `NS(=O)(=O)c1ccccc1CC[C@]1(O)CCC2=Cc3c(cnn3-c3cccnc3)C[C@@]21C1CC1` [Example 24, 2-{2-[(4aR,5R)-4a-Cyclopropyl-5-hydroxy-1-(pyridin-3-yl)-1,4,4a,5,6,7-hexahydrocyclopenta[f]indazol-5-yl]ethyl}benzenesulfonamide] yielded an EC50 of 0.007 µM and an Emax of 83%.
Compound `CC[C@]12Cc3cnn(-c4ccc(F)cc4)c3C=C1CC[C@@]2(O)CCc1nccc(OC)c1CC(N)=O` [Example 64, 2-(2-{2-[(4aS,5R)-4a-Ethyl-1-(4-fluorophenyl)-5-hydroxy-1,4,4a,5,6,7-hexahydrocyclopenta[f]indazol-5-yl]ethyl}-4-methoxypyridin-3-yl)acetamide] has an EC50 of 0.072 µM and an Emax of 77%.
With `Cc1ccnc(CC[C@]2(O)CCC3=Cc4c(cnn4-c4ccc(F)cc4)C[C@@]32C2CC2)c1` [Example 36, (4aR,5R)-4a-Cyclopropyl-1-(4-fluorophenyl)-5-[2-(4-methylpyridin-2-yl)ethyl]-1,4,4a,5,6,7-hexahydrocyclopenta[f]indazol-5-ol] the EC50 was 0.114 µM and the Emax was 72%.
Work on `NC(=O)c1ccccc1CC[C@]1(O)CCC2=Cc3c(cnn3-c3ccc(F)cc3)C[C@@]21C1CC1` [Example 23, 2-{2-[(4aR,5R)-4a-Cyclopropyl-1-(4-fluorophenyl)-5-hydroxy-1,4,4a,5,6,7-hexahydrocyclopenta[f]indazol-5-yl]ethyl}benzamide] yielded an EC50 of 0.022 µM and an Emax of 77%.
For `N#Cc1ccccc1CC[C@]1(O)CCC2=Cc3c(cnn3-c3ccccc3)C[C@@]21C1CC1` [Example 27, 2-{2-[(4aR,5R)-4a-Cyclopropyl-5-hydroxy-1-phenyl-1,4,4a,5,6,7-hexahydrocyclopenta[f]indazol-5-yl]ethyl}benzonitrile], the EC50 was 0.051 µM and the Emax was 86%.
For `CC[C@]12Cc3cnn(-c4ccc(F)cc4)c3C=C1CC[C@@]2(O)CCc1cncc(F)c1` [Example 21, (4aS,5R)-4a-Ethyl-1-(4-fluorophenyl)-5-[2-(5-fluoropyridin-3-yl)ethyl]-1,4,4a,5,6,7-hexahydrocyclopenta[f]indazol-5-ol], the EC50 was 0.095 µM and the Emax was 87%.
